Reference: paper PMC5426667, “Action of tyrosinase on alpha and beta-arbutin: A kinetic study” (PLoS ONE, 2017)

How the values were obtained:
Mushroom tyrosinase [1] = target: T1, Mushroom tyrosinase (Agaricus bisporus, UniProt C7FF04); assay: Apparent inhibition of the diphenolase activity of tyrosinase (L-dopa as substrate, dopachrome at 475 nm); type: biochemical; parameters: purchased Sigma (Madrid, Spain); settings: for type of inhibition of the diphenolase activity: Lineweaver-Burk, 3 mM arbutin; for degree of inhibition of the diphenolase activity (maximum reached): [E]0 = 30 nM, [L-dopa]0 = 0.5 mM, arbutin up to 30 mM
T1 sequence (C7FF04 1-392): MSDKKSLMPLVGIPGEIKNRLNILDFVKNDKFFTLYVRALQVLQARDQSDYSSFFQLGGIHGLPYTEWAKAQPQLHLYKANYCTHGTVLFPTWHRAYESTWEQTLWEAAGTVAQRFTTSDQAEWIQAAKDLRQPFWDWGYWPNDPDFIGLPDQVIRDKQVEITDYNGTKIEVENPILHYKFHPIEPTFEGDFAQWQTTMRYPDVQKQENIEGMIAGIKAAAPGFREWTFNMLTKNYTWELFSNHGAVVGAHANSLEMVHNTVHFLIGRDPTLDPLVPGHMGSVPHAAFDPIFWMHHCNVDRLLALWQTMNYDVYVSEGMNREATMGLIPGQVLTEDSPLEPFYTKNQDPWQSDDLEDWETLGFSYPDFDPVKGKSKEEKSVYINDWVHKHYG
Protocol: (§1) Mushroom tyrosinase (3130 U/mg) was obtained from Sigma (Madrid, Spain) and purified as previously described. Bradford’s method was used to determine the protein content using bovine serum albumin as standard.
(§2) Spectrophotometric assays were carried out with a PerkinElmer Lambda-35 spectrophotometer, online interfaced with a compatible PC 486DX microcomputer controlled by UV-Winlab software, where the kinetic data were recorded, stored, and analyzed.
(§3) The diphenolase activity of tyrosinase on L-dopa and the monophenolase activity on L-tyrosine were measured at 475 nm, the maximum absorption wavelength of dopachrome. To measure the activity of tyrosinase on L-tyrosine, the quantity of o-diphenol necessary to reach the steady state at time t = 0 was added. In this way, the characteristic lag period of the monophenolase activity, which complicates the measurement of the V0, was eliminated. This quantity is given by the equation R = [D]ss / [M]ss, where [D]ss and [M]ss are the concentrations of o-diphenol and monophenol respectively in the steady state with [M]ss ≈ [M]0. All the assays were carried out with R = 0.042.
All of the assays were carried out at 25°C, using 30 mM phosphate buffer at pH 7.0. Three repetitions of each experiment were made.
The degrees of inhibition (i) were calculated using tyrosinase, L-dopa, L-tyrosine and the following formula: i (%) = [(V0-Vi)/V0] x 100, where V0 is the initial rate of the control and Vi the initial rate in the presence of the target molecule. The initial rates were obtained by linear regression fitting of the initial portions of each experimental recording.

Mushroom tyrosinase [2] = target: T1, Mushroom tyrosinase; assay: Kinetic characterization of arbutins as substrates of tyrosinase in the presence of MBTH; type: biochemical; settings: [E]0 = 100 nM, [MBTH]0 = 0.2 mM, DMF 2%, pH 7.0, 25°C; for Km: read-out: KM (Michaelis constant) as substrate of tyrosinase
Protocol: This adduct is oxidized by another molecule of o-quinone, leading to the accumulation of o-diphenol in the medium, so, the system reach the steady state. This assay method is highly sensitive, reliable, and precise. […] The sequence of reactions is described in S1B Fig. All of the assays were carried out at 25°C, using 30 mM phosphate buffer at pH 7.0. Three repetitions of each experiment were made. Initial rate values (V0) were calculated at different substrate concentrations. The assays were carried out in saturating conditions of O2 [47-49]. The data for V0 vs. [arbutin]0 were represented and fitted to the Michaelis-Menten equation using the Sigma Plot 9.0 program for Windows, providing the maximum rate (Vmax) and the Michaelis constant (KM). […] These compounds were solubilised by adding 2% (v/v) DMF to the reaction medium. […] KM and kcat values were obtained fitting by non-linear regression (Table 2) the initial rate values vs. the concentration of substrate to the Eq 1 (Fig 7 and 7 Inset).

Mushroom tyrosinase [3] = target: T1, Mushroom tyrosinase; assay: Apparent inhibition of the monophenolase activity of tyrosinase (L-tyrosine as substrate, dopachrome at 475 nm); type: biochemical; settings: Lineweaver-Burk, 3 mM arbutin
Protocol: as §1, §2
as §3, with “0.042. […]” for “0.042.”
The degrees of inhibition (i) were calculated using tyrosinase, L-dopa, L-tyrosine and the following formula: i (%) = [(V0-Vi)/V0] x 100, where V0 is the initial rate of the control and Vi the initial rate in the presence of the target molecule. […]

[4] = deprotonated form is the nucleophile; no reference given; cited from earlier work

Row | Structure (SMILES) | type of inhibition of the diphenolase activity (Mushroom tyrosinase [1]) | degree of inhibition of the diphenolase activity (maximum reached) (Mushroom tyrosinase [1]) [%] | kcat (catalytic constant) as substrate of tyrosinase (Mushroom tyrosinase [2]) [s⁻¹] | Km (Mushroom tyrosinase [2]) [mM] | type of inhibition of the monophenolase activity (Mushroom tyrosinase [3]) | pKa [4]
1 | OC[C@H]1O[C@H](Oc2ccc(O)cc2)[C@H](O)[C@@H](O)[C@@H]1O [α-Arbutin, (2R,3S,4S,5R,6R)-2-(hydroxymethyl)-6-(4-hydroxyphenoxy)oxane-3,4,5-triol] | apparent competitive inhibition | < 100 | 4.43 ± 0.33 | 6.5 ± 0.58 | apparent competitive inhibition | –
2 | OC[C@H]1O[C@@H](Oc2ccc(O)cc2)[C@H](O)[C@@H](O)[C@@H]1O [β-Arbutin, (2R,3S,4S,5R,6S)-2-(hydroxymethyl)-6-(4-hydroxyphenoxy)oxane-3,4,5-triol] | apparent competitive inhibition | < 100 | 3.77 ± 0.29 | 3 ± 0.19 | apparent competitive inhibition | –
3 | Cl.Cn1c(=NN)sc2ccccc21.O [MBTH, 3-methyl-2-benzothiazolinone hydrazone hydrochloride hydrate] | – | – | – | – | – | 5.8 ± 0.4
